Measured values from patent US11220504B2, “Pyrrolo[3,2-d] pyrimidine derivatives for the treatment of viral infections and other diseases” (JANSSEN SCIENCES IRELAND UNLIMITED COMPANY, priority 2012, dated 2022).

How the values were obtained:
human TLR8 = target: T1, human TLR8 (Homo sapiens, UniProt Q9NR97); assay: TLR8 cellular reporter assay (HEK293, NFκB-luc); type: cell-based; conditions: HEK293 cells transfected with CMV-TLR8 and NFκB-luc, 6 hours incubation; lowest effective concentration
T1 construct: expressed in transfected cells; host or cells: HEK293 cells, transient transfection with TLR8 plasmid and NFκB-luc plasmid
T1 sequence (Q9NR97 27-1041): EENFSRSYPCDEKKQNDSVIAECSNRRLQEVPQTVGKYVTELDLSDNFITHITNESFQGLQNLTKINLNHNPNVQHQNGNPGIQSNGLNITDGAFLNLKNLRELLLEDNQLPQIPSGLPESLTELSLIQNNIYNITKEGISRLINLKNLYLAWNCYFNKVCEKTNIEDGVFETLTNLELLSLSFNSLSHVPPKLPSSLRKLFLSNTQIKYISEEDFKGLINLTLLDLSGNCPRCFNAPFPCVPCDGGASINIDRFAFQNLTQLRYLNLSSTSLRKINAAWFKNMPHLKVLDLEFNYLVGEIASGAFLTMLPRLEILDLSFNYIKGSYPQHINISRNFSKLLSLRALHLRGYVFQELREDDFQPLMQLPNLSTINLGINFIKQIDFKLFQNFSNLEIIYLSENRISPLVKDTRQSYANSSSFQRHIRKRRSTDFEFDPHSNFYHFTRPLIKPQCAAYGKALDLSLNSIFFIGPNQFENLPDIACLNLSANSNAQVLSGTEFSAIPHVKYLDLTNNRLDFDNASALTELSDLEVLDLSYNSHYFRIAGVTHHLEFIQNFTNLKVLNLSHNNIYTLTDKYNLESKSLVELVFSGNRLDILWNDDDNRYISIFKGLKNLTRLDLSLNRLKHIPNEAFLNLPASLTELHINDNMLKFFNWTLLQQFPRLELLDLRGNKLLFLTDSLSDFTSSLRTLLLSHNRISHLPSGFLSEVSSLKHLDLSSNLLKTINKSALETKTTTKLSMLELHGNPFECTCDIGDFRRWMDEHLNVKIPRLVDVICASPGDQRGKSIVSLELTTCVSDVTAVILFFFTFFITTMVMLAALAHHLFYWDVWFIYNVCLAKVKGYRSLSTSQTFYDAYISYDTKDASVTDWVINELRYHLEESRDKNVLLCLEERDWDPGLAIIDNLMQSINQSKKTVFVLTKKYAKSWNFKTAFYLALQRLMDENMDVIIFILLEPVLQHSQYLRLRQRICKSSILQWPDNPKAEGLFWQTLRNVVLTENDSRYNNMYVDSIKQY
Procedure, shortened: (§1)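 HEK293 cells transiently transfected with receptor expression vector plus NFκB-luciferase reporter, exposed to compound (added in 4% DMSO) for 6 hours at 37° C, 5% CO2. Luciferase activity measured by luminescence; dose-response curves from quadruplicate measurements.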

[1] = system: interferon-stimulated responsive elements (ISRE); assay: Activation of ISRE promoter elements by conditioned media from PBMC (HEK-ISREluc); type: cell-based, human; conditions: Homo sapiens; conditioned media from PBMC transferred to HEK-ISREluc cells, 24 hours; lowest effective concentration; read-out: PBMC LEC
Procedure, shortened: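 Human PBMCs (≥2 donors, RPMI + 10% human AB serum, 2×10^5 cells/well) incubated overnight with compound; supernatant transferred to HEK293 cells stably carrying pISRE-Luc for 24 h, then luciferase read. LEC = compound concentration on PBMCs giving luciferase signal at least two-fold above assay SD; recombinant IFN-α-2a standard.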

human TLR7 = target: T2, human TLR7 (Homo sapiens, UniProt Q9NYK1); assay: TLR7 cellular reporter assay (HEK293, NFκB-luc); type: cell-based; conditions: HEK293 cells transfected with CMV-TLR7 and NFκB-luc, 6 hours incubation; lowest effective concentration
T2 construct: expressed in transfected cells; host or cells: HEK293 cells, transient transfection with CMV-TLR7 plasmid and NFκB-luc plasmid
T2 sequence (Q9NYK1 27-1049): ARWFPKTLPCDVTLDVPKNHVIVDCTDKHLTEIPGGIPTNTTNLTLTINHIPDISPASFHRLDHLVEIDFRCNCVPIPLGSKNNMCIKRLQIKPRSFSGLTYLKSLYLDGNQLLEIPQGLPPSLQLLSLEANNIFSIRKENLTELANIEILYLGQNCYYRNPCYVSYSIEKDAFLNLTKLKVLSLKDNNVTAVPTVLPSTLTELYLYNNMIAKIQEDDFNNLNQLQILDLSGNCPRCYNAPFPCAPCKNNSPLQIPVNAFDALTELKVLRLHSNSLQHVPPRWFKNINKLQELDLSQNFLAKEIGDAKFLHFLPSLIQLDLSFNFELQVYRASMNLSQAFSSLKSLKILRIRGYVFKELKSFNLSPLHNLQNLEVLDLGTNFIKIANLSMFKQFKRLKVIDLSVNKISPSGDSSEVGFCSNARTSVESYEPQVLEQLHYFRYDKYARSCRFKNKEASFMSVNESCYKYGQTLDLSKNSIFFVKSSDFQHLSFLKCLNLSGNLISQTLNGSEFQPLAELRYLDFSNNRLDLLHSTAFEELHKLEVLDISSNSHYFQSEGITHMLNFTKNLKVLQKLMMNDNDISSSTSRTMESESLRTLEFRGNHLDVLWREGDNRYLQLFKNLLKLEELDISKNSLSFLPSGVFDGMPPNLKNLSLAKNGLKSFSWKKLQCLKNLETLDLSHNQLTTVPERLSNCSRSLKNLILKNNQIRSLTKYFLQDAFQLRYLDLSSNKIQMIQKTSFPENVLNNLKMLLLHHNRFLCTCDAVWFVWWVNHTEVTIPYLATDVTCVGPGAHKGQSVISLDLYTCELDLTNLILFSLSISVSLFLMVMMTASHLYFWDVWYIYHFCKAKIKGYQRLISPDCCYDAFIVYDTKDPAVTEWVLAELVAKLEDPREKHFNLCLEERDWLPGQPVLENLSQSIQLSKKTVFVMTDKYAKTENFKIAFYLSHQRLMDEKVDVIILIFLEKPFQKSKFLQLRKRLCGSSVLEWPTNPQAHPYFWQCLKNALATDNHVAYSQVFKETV
Procedure, shortened: as §1

| SMILES | TLR8 LEC (human TLR8) | minimal effective concentration [1] | TLR7 LEC (human TLR7) |
| --- | --- | --- | --- |
| Cc1cc(CNc2nc(N)nc3ccn(Cc4cn(-c5ccccc5)nn4)c23)no1 [Compound 176] | >25 µM | 0.009 µM | 0.04 µM |
| Cc1nc(CNc2nc(N)nc3ccn(Cc4ccccn4)c23)c(C)o1 [Compound 177] | >25 µM | 3.93 µM | 8.67 µM |
| Cc1cc(CNc2nc(N)nc3ccn(Cc4cccc(F)n4)c23)no1 [Compound 178] | >25 µM | 0.014 µM | 0.15 µM |
| COc1ncccc1Cn1ccc2nc(N)nc(NCc3cc(C)on3)c21 [Compound 179] | >25 µM | 0.003 µM | 0.02 µM |
| COc1cc(OC)nc(Cn2ccc3nc(N)nc(NCc4cc(C)on4)c32)n1 [Compound 180] | >25 µM | 0.004 µM | 0.01 µM |
| Cc1cc(CNc2nc(N)nc3ccn(Cc4cc(C)on4)c23)no1 [Compound 181] | 20.2 µM | 0.015 µM | 0.06 µM |
| Cc1cc(CNc2nc(N)nc3ccn(Cc4cc5ccccc5cn4)c23)no1 [Compound 182] | >25 µM | 0.018 µM | 0.05 µM |
| Cc1cc(CNc2nc(N)nc3ccn(Cc4ccc5cccnc5n4)c23)no1 [Compound 183] | >25 µM | 0.009 µM | 0.59 µM |
| Cc1cc(CNc2nc(N)nc3ccn(Cc4ncccc4C)c23)no1 [Compound 185] | >25 µM | 0.018 µM | 0.07 µM |
| Cc1cc(CNc2nc(N)nc3ccn(Cc4ncccn4)c23)no1 [Compound 186] | >25 µM | 0.035 µM | 0.14 µM |
| Cc1cc(CNc2nc(N)nc3ccn(Cc4ccccn4)c23)nn1C [Compound 187] | >25 µM | 0.52 µM | 4.78 µM |
| Cn1cnc(CNc2nc(N)nc3ccn(Cc4ccccn4)c23)c1 [Compound 188] | >25 µM | 0.047 µM | 7.62 µM |
| Cc1cc(CNc2nc(N)nc3ccn(Cc4csc(C)n4)c23)no1 [Compound 192] | >25 µM | 0.03 µM | 0.07 µM |
| Cn1cc(CNc2nc(N)nc3ccn(Cc4ccccn4)c23)nn1 [Compound 193] | >25 µM | 0.447 µM | 11.3 µM |
| COc1cccnc1Cn1ccc2nc(N)nc(NCc3noc(C)n3)c21 [Compound 196] | 12.6 µM | 0.002 µM | 0.01 µM |
| Cc1nc(Cn2ccc3nc(N)nc(NC(C)c4ccccn4)c32)cs1 (stereo not drawn) [Compound 197] | >25 µM | 0.04 µM | 0.39 µM |
| CC(C)(O)CCNc1nc(N)nc2ccn(Cc3ccccn3)c12 [Compound 198] | >25 µM | 0.617 µM | 8.76 µM |
